Reference: US20070032458A1, “Compound having activity for inhibiting dioxin toxicity, pharmaceutical composition comprising the compound and method for treating disease resulting from dioxin toxicity using the compound” (priority 2005, published 2007)
Like-named read-outs stand apart in the source and are kept apart here.

Legend:
[1] = tested on: Cytochrome P450 enzyme activity (ethoxyresorufin-O-deethylase activity); experiment: Dioxin-induced EROD (cytochrome P450 enzyme) activity inhibition in Hep G2 cells; type: cell-based; conditions: Homo sapiens, read-out: Dioxin-induced EROD activity inhibition IC50
Protocol: (§1) Hep G2 cell that is a human hepatocarcinoma cell line was cultured in an incubator with a culture medium of Dulbecco's Modified Eagle Medium (DMEM) containing 10% of Fetal Bovine Serum (FBS) at 37° C. under an atmosphere of 5% of CO2.
1×104 of the cultured human hepatocarcinoma cells were placed into wells of a […]. After 24 hours, the cells were treated with a solution in which compounds represented by formulae 2 through 8 (obtained from Chembridge Corporation, San Diego, Calif.) were dissolved in dimethyl sulfoxide (DMSO) in a concentration of 0.1%. After one hour, the cells were treated with 3 nM of 2,3,7,8-tetrachlorodibenzo-p-dioxin (obtained from Cambridge Isotope Laboratory, Andover, Mass., U.S.A.). Cytochrome P450 enzyme activity was measured after 24 hours and the measured activity was evaluated by measuring ethoxyresorufin-O-deethylase activity (EROD, Ciolino et al, 1998).

cytochrome P450 1A1 = experiment: Western blot of dioxin-induced cytochrome P450 1A1 expression in hepatocarcinoma cells; type: cell-based, human
Protocol: as §1
3×10^5 of the cultured human hepatocarcinoma cells were placed into tissue culture plates and cultured for 24 hours. After 24 hours, the cells were treated with a solution in which Compound 2 (obtained from Chembridge Corporation, San Diego, Calif.) was dissolved in dimethyl sulfoxide (DMSO) in a concentration of 0.1%. After one hour, the cells were treated with 3 nM of 2,3,7,8-tetrachlorodibenzo-p-dioxin (obtained from Cambridge Isotope Laboratory, Andover, Mass., U.S.A.). After 24 hours, the culture medium was removed by suction and the cells were washed with phosphate buffer solution. Then the cells were lysed and the protein was quantified.
In FIG. 1, flavone that has been widely reported to inhibit dioxin toxicity even though it increases dioxin toxicity at high concentrations was used as a positive control group. FIG. 1 illustrates Western blot analysis of cells treated with Compound 2 and flavone.

dioxin receptor = biological target: T1, dioxin receptor (Homo sapiens, UniProt P35869); experiment: Inhibition of 3[H]-dioxin binding to its receptor in hepatocarcinoma cell cytoplasm (hydroxylapatite)
T1 construct: endogenous in cells; host or cells: hepatocarcinoma cells (cytoplasm fraction)
T1 sequence (P35869 11-848): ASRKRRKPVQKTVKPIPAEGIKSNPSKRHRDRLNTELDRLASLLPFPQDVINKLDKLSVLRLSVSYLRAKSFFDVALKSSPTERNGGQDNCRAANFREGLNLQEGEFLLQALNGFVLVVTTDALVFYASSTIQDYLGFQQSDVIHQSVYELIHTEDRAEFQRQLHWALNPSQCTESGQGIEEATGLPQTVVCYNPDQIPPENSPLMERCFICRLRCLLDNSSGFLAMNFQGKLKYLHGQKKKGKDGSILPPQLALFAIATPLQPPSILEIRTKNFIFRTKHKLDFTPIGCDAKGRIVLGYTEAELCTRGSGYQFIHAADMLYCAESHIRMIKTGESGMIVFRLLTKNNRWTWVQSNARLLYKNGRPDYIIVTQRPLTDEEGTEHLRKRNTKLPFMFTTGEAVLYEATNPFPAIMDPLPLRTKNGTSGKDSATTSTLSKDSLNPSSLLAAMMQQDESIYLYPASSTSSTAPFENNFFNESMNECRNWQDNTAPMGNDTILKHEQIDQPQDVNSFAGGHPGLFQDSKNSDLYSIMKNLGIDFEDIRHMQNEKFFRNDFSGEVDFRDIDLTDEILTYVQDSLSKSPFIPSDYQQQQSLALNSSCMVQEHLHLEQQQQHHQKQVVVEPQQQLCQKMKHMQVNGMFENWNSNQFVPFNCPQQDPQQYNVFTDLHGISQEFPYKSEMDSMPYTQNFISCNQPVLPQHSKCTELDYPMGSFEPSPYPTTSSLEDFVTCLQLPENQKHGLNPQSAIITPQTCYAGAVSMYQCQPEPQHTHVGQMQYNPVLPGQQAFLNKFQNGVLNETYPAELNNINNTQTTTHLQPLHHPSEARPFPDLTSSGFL
Protocol: Compound 2 and 3[H]-dioxin were added to cytoplasm of hepatocarcinoma cells and analysis on binding of ligand-receptor was performed using hydroxylapatite. […] The results are illustrated in FIG. 2.
FIG. 2 illustrates the ability in percentage of Compound 2 to inhibit the binding of 3[H]-dioxin to its receptor.

Structure (SMILES) | IC50 ([1]; HepG2, 24 h) | further results
Cc1ccccc1N=Nc1ccc(NC(=O)C(C)C)c(C)c1 [Compound 5] | 110 ± 7 nM | 
Cc1ccccc1N=Nc1ccc(NC(=O)c2cccs2)c(C)c1 [Compound 6] | 153 ± 10 nM | 
Cc1cc(N=Nc2ccccc2C)ccc1N [Compound 7] |  | IC50 ([1]; HepG2, Hep G2 cells, 3 nM 2,3,7,8-tetrachlorodibenzo-p-dioxin, measured after 24 hours): 215 ± 42 nM
Cc1ccccc1N=Nc1ccc(NC(=O)c2ccnn2C)c(C)c1 [Compound 2] | 30 ± 2 nM | expression of cytochrome P450 1A1 that is increased by dioxin (cytochrome P450 1A1; human hepatocarcinoma cells, 3 nM dioxin, 24 hours, Western blot): inhibited expression of cytochrome P450 1A1; effect in decreasing the amount of expressed cytochrome P450 enzyme (cytochrome P450 1A1; various concentrations, FIG. 1): excellent effect; binding ability of 3[H]-dioxin to its receptor with increasing concentration (dioxin receptor; Compound 2 at 0.1, 1 and 10 μM, FIG. 2): decreased as the concentration of Compound 2 increased; binding of 3[H]-dioxin to its receptor (dioxin receptor; cytoplasm of hepatocarcinoma cells, hydroxylapatite): inhibited the binding
CCCCNC(=O)Nc1ccc(N=Nc2ccccc2C)cc1C [Compound 8] | 450 ± 75 nM | 
CC(=O)N(C(C)=O)c1ccc(N=Nc2ccccc2C)cc1C [Compound 3] | 75 ± 4 nM | 
Cc1ccccc1N=Nc1ccc(NC(=O)c2ccc(F)cc2)c(C)c1 [Compound 4] | 105 ± 11 nM | 
